The molecules below were run on GUMC-403 (assay: viability at highest tested concentration (max response) relative to DMSO (% of DMSO control); higher = less cytotoxic). Conditions: library / dose series: MIPE library, 11-point 1:3 dilution; top concentration 1.84 µM; 48 h.
Outline: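 This value is viability at the highest tested concentration relative to vehicle control. GUMC-403 papilloma cells from a patient, grown by conditional reprogramming, were plated at 700/well in 1536-well plates and given 23 nL of compound by pin tool for 48 h. CellTiter-Glo luminescence on a ViewLux was normalised with vehicle wells at 100% and empty wells at 0%.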

For `CCC(=C/[C@H](C)C/C=C/C(C)=C/[C@@H](C)C(=O)[C@@H](C)[C@H](O)[C@@H](C)C/C(C)=C/C(=O)O)/C=C/[C@@H]1OC(=O)C=C[C@@H]1C`, which viability is on record?
Its viability is 97.2.

Same assay, conditions: library / dose series: MIPE library, 11-point 1:3 dilution; top concentration 23 µM; 48 h

With `[O-]C(=O)C/1=N/C(=O)NC(=O)N1` as the molecule, how does the viability read?
Its viability is 90.2.

Same assay, conditions: library / dose series: MIPE library, 11-point 1:3 dilution; top concentration 46.1 µM; 48 h

With `O=C(CO)N1CCC(c2n[nH]c(-c3ccc(Cl)cc3)c2-c2ccncn2)CC1` as the molecule, how does the viability read?
Its viability is 109.

With `C\C1=C(\C=C(\C#N)C(=O)N1)C2=CC=NC=C2` as the molecule, how does the viability read?
The viability was 119.

Which viability does the source give for `Cc1ccccc1C(C(=O)NC1CCCCC1)N(C(=O)Cn1ccnc1C)c1cccc(F)c1` (stereo not drawn) here?
The viability was 120.

How did the viability turn out when `CCOC(=O)c1ccc(OC(=O)CCCCCNC(=N)N)cc1` was run?
Its viability is 138.

`C\C1=C\C(=O)OC2=C1C=CC(=C2)O` was tested. Which viability did it give?
The viability was 110.

How did the viability turn out when `CN(Cc1cnc2nc(N)nc(N)c2n1)c1ccc(C(=O)N[C@@H](CCC(=O)O)C(=O)O)cc1` was run?
Its viability is 111.

With `CC(=O)OCC(=O)[C@@]12OC(C)(C)O[C@@H]1C[C@H]3[C@@H]4C[C@H](F)C/5=C/C(=O)/C=C\[C@]5(C)[C@@]4(F)[C@@H](O)C[C@]23C` as the molecule, how does the viability read?
The viability was 116.

Which viability does the source give for `O=C(NC1CC1)c1cccc(-c2ccc3c(NC(=O)C4CC4)n[nH]c3c2)c1` here?
Its viability is 110.

Which viability does the source give for `CCCc1nc2c(C)cc(-c3nc4ccccc4n3C)cc2n1Cc1ccc(-c2ccccc2C(=O)O)cc1` here?
The viability was 118.

How did the viability turn out when `O=C(O)CCNC(=O)c1ccc(/N=N/c2ccc(O)c(C(=O)O)c2)cc1` was run?
Its viability is 107.

For `OC[C@H]1O[C@@H](Oc2ccc(O)cc2)[C@H](O)[C@@H](O)[C@@H]1O`, which viability is on record?
The viability was 99.9.

`O=C(NC1CCOCC1)c1ccc(-c2cc(-c3c[nH]nc3-c3ccccn3)ccn2)cc1` was tested. Which viability did it give?
The viability was 159.

For `O=NN(CCCl)C(=O)NCCCl`, which viability is on record?
The viability was 131.

Which viability does the source give for `Clc2cccc(Cl)c2\N=C1/NCCN1` here?
Its viability is 132.

For `N=C(N)NC(=N)N1CCOCC1`, which viability is on record?
Its viability is 132.

With `N#Cc1ccc(COC[C@H]2O[C@@H](n3c(NCc4ccc(Cl)c(Cl)c4)nc4c(N)ncnc43)[C@H](O)[C@@H]2O)cc1` as the molecule, how does the viability read?
The viability was 89.

How did the viability turn out when `C=C1C(=O)O[C@@H]2[C@H]3O[C@]3(C)CC/C=C(\C)CC[C@@H]12` was run?
Its viability is 108.

`C#Cc1cccc(Nc2ncnc3cc(OC)c(OCCCCCCC(=O)NO)cc23)c1` was tested. Which viability did it give?
Its viability is 33.9.

`CN1[C@@H]2CCC[C@H]1C[C@@H](NC(=O)c1nn(C)c3ccccc13)C2.Cl` was tested. Which viability did it give?
The viability was 105.

For `CN(C)CCOc1ccc(-c2nc(-c3ccncc3)c(-c3ccc4c(c3)CC/C4=N\O)[nH]2)cc1`, which viability is on record?
Its viability is 94.9.

`C1Cc2[nH]nc(-c3nn[nH]n3)c2C1` was tested. Which viability did it give?
Its viability is 118.

How did the viability turn out when `COc1ccc(CCN2CCN(CCCc3ccccc3)CC2)cc1OC` was run?
Its viability is 120.

Which viability does the source give for `Cn1cnc2c(F)c(Nc3ccc(Br)cc3F)c(C(=O)NOCCO)cc21` here?
The viability was 89.6.

How did the viability turn out when `CN(C)CCc1c[nH]c2ccc(C[C@H]3COC(=O)N3)cc12` was run?
The viability was 106.

With `CCNC(=O)C[C@@H]1\N=C(C2=CC=C(Cl)C=C2)/C3=C(C=CC(=C3)OC)[N]4C(=NN=C14)C` as the molecule, how does the viability read?
Its viability is 79.8.

For `CC(C)NCC(O)COc1ccc(CCOCC2CC2)cc1` (stereo not drawn), which viability is on record?
The viability was 117.

With `NNCCc1ccccc1` as the molecule, how does the viability read?
The viability was 109.

With `C[C@]1(O)CC(C1)C2=NC(=C3[N]2C=CN=C3N)C4=CC5=C(C=C4)C=CC(=N5)C6=CC=CC=C6` (stereo not drawn) as the molecule, how does the viability read?
Its viability is 86.4.

With `C[N]1C=C(C=N1)C2=C3\C=N/NC(=O)C4=C3C(=CC(=C4)NC(=O)[C@H](N)C5CCCCC5)[NH]2` as the molecule, how does the viability read?
Its viability is 100.

Which viability does the source give for `C[C@]1(CO)CN(c2cc(C(=O)Nc3ccc4c(c3)-c3c(c(C(N)=O)nn3-c3ccc(F)cc3)CC4)c(Cl)cn2)C[C@@]1(C)CO` here?
Its viability is 64.7.

How did the viability turn out when `CCCCn1c(=O)n(Cc2ccccc2F)c(=O)c2nc(Cc3ccc(NC(C)=O)cc3)[nH]c21` was run?
The viability was 94.

Which viability does the source give for `CN(C)/N=N/c1nc[nH]c1C(N)=O` here?
Its viability is 123.

How did the viability turn out when `C=C(C)[C@H]1Cc2c(ccc3c2O[C@@H]2COc4cc(OC)c(OC)cc4[C@@H]2C3=O)O1` was run?
Its viability is 112.

`O=c1c(-c2ccc(O)cc2)coc2cc(O[C@@H]3O[C@H](CO)[C@@H](O)[C@H](O)[C@H]3O)ccc12` was tested. Which viability did it give?
Its viability is 135.

Which viability does the source give for `C[C@@H]1CCO[C@H]2CN\3/C=C(/C(=O)NCC4=C(F)C=C(F)C=C4)C(=O)\C(=C3C(=O)N12)O` here?
Its viability is 110.

Which viability does the source give for `Cc1cnc(Nc2ccc(F)cc2Cl)nc1-c1c[nH]c(C(=O)N[C@H](CO)c2cccc(Cl)c2)c1` here?
Its viability is 80.9.

Which viability does the source give for `COCCOc1nc(-c2ccc(Cl)c(Cl)c2)n(-c2ccc(NC(=O)CCl)cc2)n1` here?
The viability was 85.8.

`CN1CCC(=C2c3ccccc3CCc3sccc32)CC1` was tested. Which viability did it give?
The viability was 115.

With `NC(=O)Nc1cc(-c2ccc(CN3CCOCC3)cc2)sc1C(N)=O` as the molecule, how does the viability read?
Its viability is 70.6.

How did the viability turn out when `COC1=CC(=C2C(=O)N(COC/3=C/C(=O)N4\C=C/C=C(OCCN5CCCCC5)\C4=N3)[S+]([O-])(=O)C2=C1)C(C)C` was run?
Its viability is 122.

With `C[C@@H](NCCCc1cccc(C(F)(F)F)c1)c1cccc2ccccc12` as the molecule, how does the viability read?
Its viability is 99.7.

`CC1(C)CCC[C@]2(C)[C@H]3CC(=O)O[C@]3(C)CC[C@@H]12` was tested. Which viability did it give?
The viability was 96.

`NC\1=N\C(=O)N(\C=N1)[C@H]2C[C@H](O)[C@@H](CO)O2` was tested. Which viability did it give?
Its viability is 105.

With `CO[C@H]1/C=C/O[C@@]2(C)Oc3c(C)c(O)c4c(O)c(c5c(nc6cc(C)ccn65)c4c3C2=O)NC(=O)/C(C)=C\C=C\[C@H](C)[C@H](O)[C@@H](C)[C@@H](O)[C@@H](C)[C@H](OC(C)=O)[C@@H]1C` as the molecule, how does the viability read?
The viability was 133.

For `COc1cc(NCc2ccc3nc(N)nc(N)c3c2C)cc(OC)c1OC`, which viability is on record?
Its viability is 99.5.

With `CC(C)(C(=O)NCC(F)(F)C(F)(F)F)C(=O)N[C@@H]1C(=O)Nc2ccccc2-c2ccccc21` as the molecule, how does the viability read?
The viability was 88.8.

`COc1cc(NC(=O)c2ccc(-c3ccc(Cl)cc3)o2)cc(OC)c1` was tested. Which viability did it give?
Its viability is 39.9.

For `Cc1cnn(C)c1C(=O)Nc1cc(Nc2ccc3c(/C=C/c4ccccn4)n[nH]c3c2)ccc1F`, which viability is on record?
The viability was 125.

For `COC1=CC=C2[N](CCCN(C)C)C=C(C2=C1)C/3=C(/C(=O)NC3=O)C4=C[NH]C5=C4C=CC=C5`, which viability is on record?
The viability was 102.

`O=C(NCCO[N+](=O)[O-])c1cccnc1` was tested. Which viability did it give?
The viability was 108.

How did the viability turn out when `CC1(C)[C@@H](O)CC[C@@]2(C)[C@H]1CC[C@]3(C)[C@@H]2C(=O)\C=C/4[C@@H]5C[C@](C)(CC[C@]5(C)CC[C@@]34C)C(O)=O` was run?
The viability was 117.

Which viability does the source give for `CC(C)N(CC[C@H](c1ccccc1)c1cc(CO)ccc1O)C(C)C` here?
Its viability is 137.

Which viability does the source give for `CC/1=C(\CCN2CCC(CC2)C3=NOC4=C3C=CC(=C4)F)C(=O)N/5CCCCC5=N1` here?
Its viability is 114.

`CCn1c(-c2nonc2N)nc2c(C#CC(C)(C)O)ncc(OC[C@H]3CCCNC3)c21` was tested. Which viability did it give?
Its viability is 100.

With `ClC1=CC\2=C(OC3=C(C=CC=C3)\N=C2N4CCNCC4)C=C1` as the molecule, how does the viability read?
The viability was 110.

For `COc1cc([C@@H]2c3cc4c(cc3[C@H](O)[C@H]3COC(=O)[C@H]23)OCO4)cc(OC)c1OC`, which viability is on record?
Its viability is 115.

For `Cc1ccc(CN2CCNCC2)cc1NC(=O)CNc1ccc(F)c(F)c1`, which viability is on record?
The viability was 98.9.

`COc1c(Cl)cc2c([nH]c3cnccc32)c1NC(=O)c1cccnc1C` was tested. Which viability did it give?
The viability was 96.7.

With `CC(C)c1ccccc1Cc1cc(C(=O)Nc2ccc([S+](=O)([O-])c3ccccc3C(C)(C)C)cc2)c(O)c(O)c1O` as the molecule, how does the viability read?
The viability was 56.4.

With `CN(C)c1ccc(Nc2nc(N)n(C(=O)c3c(F)cccc3F)n2)cc1` as the molecule, how does the viability read?
The viability was 103.

Which viability does the source give for `CCN(CC)CCCC(C)Nc1nc(C)cc(Nc2ccc3nc(C)cc(N)c3c2)n1` (stereo not drawn) here?
The viability was 106.
